Laboratory results as given in patent publication US5705501A, “Certain substituted 1-aryl-3-morpholinopropanones to treat Alzheimer's Disease” (priority 1994, dated 1998).
pIC50: −log10 of the molar value. Structures can show the parent of a compound that is named as a salt.

Experiments:
[1] = tested on: TG3 immunoreactivity in OKA treated MSN1a cells; test: Inhibition of TG3 immunoreactivity in OKA treated MSN1a cells (ELISA); type: cell-based, human; details: TG3 antibody; for pIC50: Homo sapiens, 1 μM OKA, 0-64 μM drug, 2 hrs at 37° C.
Procedure: This assay can thus be used to determine whether a drug is capable of preventing or intervening in AD by attenuating the production of abnormally phosphorylated paired helical filament epitopes associated with AD. To determine whether a drug is capable of preventing or intervening in AD activity, the MSN1a cells containing tau and associated proteins are treated with OKA capable of greatly increasing immunoreactivity of the MSN1a cells with AD specific monoclonal antibodies. Then, either prior to or concomitantly with OKA treatment, a compound of the present invention is added to the culture. If the compound prevents the induction of the AD epitopes in the MSN1a cells treated with OKA, then it is said to have anti-AD activity. If the AD-specific antibodies are highly reactive with the neuroblastoma cells following OKA treatment in the presence of compound, then the compound is said to be ineffectual against AD.
The MSN1a human neuroblastoma line was subcloned from a population of MSN cells obtained from the laboratory of Dr. Peter Davies (Albert Einstein College of Medicine, New York, N.Y.). Cells were grown and maintained in flasks in RPMI 1640 medium, supplemented with 15% fetal calf serum, 100 U/ml penicillin, 100 U/ml Streptomycin, 0.5 ug/ml fungizone under 7.5% CO2 at 37° C.
Stock solutions of drugs were prepared by dissolving the anhydrous powders to final concentrations of either 10 or 20 mM in 50% aqueous or 100% dimethyl sulfoxide (DMSO), respectively. Working solutions of drugs were prepared by dilution of the stock solutions with Kreb's Ringer in Hepes buffer (KRH) (128 mM NaCl, 5 mM KCl, 2.5 mM CaCl2 1.2 mM MgSO4, 1 mM Na2 HPO4, 10 mM dextrose, 20 mM Hepes, pH 7.4). OKA is maintained as a 1 mM stock solution in DMSO prior to dilution to 4 μM in KRH.
MSN cells grown in 225 cm^2 flasks are removed from the incubator, their medium decanted and replaced with 50 ml pre-warmed KRH. The cells are harvested by scraping prior to sedimentation at 1000 rpm for 5 min. The supernatants are discarded and the cell pellets are resuspended, the cells counted and diluted to a density of 2×10^4 cells/[…]. The cells are then plated in a 96 well plate at 50 μl/well and 25 μl of 4 μM OKA and 25 μl of drug are then added to the appropriate wells; the entire 96 well plate is then incubated for 2 hrs at 37° C. Depending on the dilution of drug added, this yields individual wells containing 1 μM OKA, 0-64 μM drug and 2×10^4 cells in 0.26% DMSO in KRH. The incubation is terminated by the addition of 20 μl of 6X extraction buffer and immediate freezing at -80° C. for at least one hr. The 6X extraction buffer contains: 25 mM Tris-HCl, pH 7.6, 150 mM NaCl, 5 mM EDTA, 24 mM δ-glycerol phosphate, 10 μg/ml APMSF (4-amidinophenylmethane-sulfonyl flouride), and 2.5 μg/ml each of leupeptin, aprotinin, and pepstatin. The plates are thawed in a 37° C. water bath and 20 μl of cell lysate is added to a replica well in an ELISA plate that already contains 80 μl of coating buffer (15 mM Na2 CO3 and 35 mM NaHCO3, pH 9.6). The plates are allowed to coat overnight at 4° C. The plates are washed four times with deionized water and then blocked for 30 min at 37° C. with 200 μl/well pre-warmed 1% bovine serum albumin in 10 mM Tris-HCl, pH 7.4, 150 mM NaCl, 3 mM NaN3 (BSA-TBS). After the blocking solution is removed, 100 μl/well of an appropriate dilution of pre-warmed primary antibody (eg., TG3 or PHF-1) in BSA-TBS is added and incubated at 37° C. for 30 min. Incubation is terminated by washing four times in deionized water at which time 100 μl of an appropriate dilution of pre-warmed secondary antibody (conjugated to alkaline phosphatase) in BSA-TBS is added to each well in the ELISA plate. Incubation is performed for 30 min at 37° C. followed by washing 4 times with deionized water. […] of prewarmed chromogenic substrate (1 mg/ml p-nitrophenyl phosphate in 10% diethanolamine, 3 mM NAN3, 0.5 mM MgCl2, pH 9.8) is added and the plate incubated for 30 min at 37° C. […]

[2] = tested on: paired helical filament epitopes (TG3) in human brain tissue; test: Direct ELISA with TG3 antibody on post-mortem brain tissue of patients (second retrospective study); type: in vivo; details: chlorpromazine treated patients (Rx), N 51, summed absorbance
From the text: In a subsequent study, 51 additional patients were identified and the analysis was repeated as above using the TG3 antibody in an ELISA format. The results, summarized in Table 1, clearly reproduce and confirm the first retrospective study. Immunohistopathological studies carried out on several brain regions from these patients were consistent with these ELISA results. Taken together, these two studies provide evidence of the therapeutic benefit of chlorpromazine in AD and validate the use of the MSN1a model for the identification of therapeutically useful compounds for the treatment of AD.
*Signal is calculated by summing the means of duplicate absorbance
readings (direct ELISA using TG3 antibody) for 8 dilutions of all lysates
prepared by one to two serial dilutions.

[3] = tested on: PHF epitope (ADAP) levels in human brain tissue; test: ALZ-EIA of PHF epitope (ADAP) levels in post-mortem brain tissue of chronically treated patients (first retrospective study); type: in vivo; details: chronically chlorpromazine treated patients (Rx), Brodman areas 10 and 38, ALZ-EIA
Procedure: FIG. 4A is a chart showing relative ADAP concentrations in Brodman Area 10 in Alzheimer's Disease patients, normal controls and patients treated with chloropromazine (Rx).
FIG. 4B is a chart showing relative ADAP concentrations in Brodman Area 38 in Alzheimer's Disease patients, normal controls and patients treated with chloropromazine (Rx).
Frontal and cortical brain tissue specimens obtained at autopsy from patients chronically treated with chlorpromazine were analyzed using the ALZ-EIA method previously described (Ghanbari, H A, et al, JAMA, 263, 2907, 1990). The results are shown in FIGS. 4A and 4B frontal (Broadman area 10) and temporal (Broadman area 38) regions, respectively. The brain tissue (post-mortem) from approximately the same number of (age matched) normal controls and Alzheimer's Disease patients were also analyzed and are presented in these figures as negative and positive controls (for normal and AD, respectively).

[4] = tested on: paired helical filament epitopes (PHF-1) in MSN1a cells; test: Western blot of PHF-1 immunoreactivity in MSN1a cells treated with okadaic acid; type: cell-based, human
Procedure: FIG. 3 is a western blot showing PHF-1 immunoreactivity in lysates from control and chlorpromazine treated MSN cells treated with okadaic acid.
These compounds are effective at micromolar concentrations, with increased potency being evident when cells are treated prior to the addition of okadaic acid. The effective concentrations appear to be in the range at which these drugs are present in the brain following chronic treatment of psychiatric patients (Svendsen, CN, Psychopharmacology, 90, 316-321, 1986).
To determine the effect of chlorpromazine on the paired helical filament epitopes associated with AD, MSN1a cells expressing paired helical filament epitopes were incubated with […] chlorpromazine (CPZ) or a 0.2% DMSO vehicle control for 2 hours at 37° C. The cells were isolated by centrifugation, boiled for 10 minutes and […] protein from the resulting heat stable supernatants were loaded per lane on an SDS-PAGE gel. The gel was electrophoretically transferred to nitrocellulose membrane and then immunostained with PHF-1. […] The use of the MSN1a cell culture model for screening of novel compounds for therapeutic activity in AD is, therefore, quite warranted.

[5] = tested on: PHF-1 and TG3 epitopes in MSN1a cells; test: Generation of Alzheimer brain specific epitopes in MSN1a cells; type: cell-based, human; details: epitopes absent or very low in untreated cells
Procedure: Conditions were established which led to hyperphosphorylation of the proteins known to be involved in PHF formation. Using monoclonal antibodies PHF-1 and TG3 generated to human PHF preparations, the effects of a variety of manipulations of the phosphorylation state of these proteins were tested. These tests required that most of the abnormal epitopes recognized by these monoclonal antibodies in the human Alzheimer brain should be generated in the MSN1a cells. […] These epitopes are either absent or present at a very low level in untreated MSN1a cells.
Shown in FIG. 2A are bar graphs (percent of AD) of the ELISA immunoreactivity of brain preparations (AD or normal) to either PHF-1 or TG3. Shown in FIG. 2B are bar graphs (percent of MSN+) of the ELISA immunoreactivity of MSN1 a cell preparations (minus or plus okadaic acid) to either PHF-1 or TG3. The MSN1a cell preparations plus vs minus okadaic acid closely parallel the AD vs normal brain preparations. […] The cell culture system according to the invention in which epitopes characteristic of PHF can be readily generated and subsequently recognized by the specific Alzheimer brain specific antibodies provides an assay suitable for screening compounds for their ability to block the production of these phosphorylated epitopes.

SMILES: O=C(CCN1CCOCC1)c1cccc([N+](=O)[O-])c1 [Example 30, 1-(m-Nitrophenyl)-3-(4'-morpholinyl)-1-propanone hydrochloride]
- pIC50 [1]: 5.23

SMILES: CC1CN(CCC(=O)c2cccc([N+](=O)[O-])c2)CC(C)N1 (centres unmarked) [Example 26, 1-(m-Nitrophenyl)-3-(2',6'-dimethyl-4'-piperazinyl)-1-propanone dihydrochloride]
- pIC50 [1]: 5.14

SMILES: CN1CCN(CCC(=O)c2ccccc2)CC1 [Example 1, 1-Phenyl-3-(4'-methyl-1'-piperazinyl)-1-propanone dihydrochloride]
- pIC50 [1]: 4.91

SMILES: CCCN1CCN(CCC(=O)c2cccc(C)c2)CC1 [Example 5, 1-(m-Methylphenyl)-3-(4'-propyl-1'-piperazinyl)-1-propanone dihydrochloride]
- pIC50 [1]: 4.80

SMILES: O=C(CCN1CCOCC1)c1cc(Cl)ccc1Cl [Example 17, 1-(2",5"-Dichlorophenyl)-3-(4'-morpholinyl)-1-propanone hydrochloride]
- pIC50 [1]: 4.80

SMILES: CC1CN(CCC(=O)c2ccccc2)C(C)CN1CCC(=O)c1ccccc1 (centres unmarked) [Example 45, 1,4-Bis-(3'-Phenylpropane-3'-one-1'-yl)-2,5-dimethylpiperazine dihydrochloride]
- pIC50 [1]: 4.94

SMILES: CN(c1cccc(C(=O)CCN2CCOCC2)c1)S(C)(=O)=O [Example 34, 1-[m-(N-Methyl-N-methylsulfonylamino)phenyl]-3-(4'-morpholinyl)-1-propanone hydrochloride]
- pIC50 [1]: 5.12

SMILES: CN(C)CCCN1c2ccccc2Sc2ccc(Cl)cc21 [Chlorpromazine, chlorpromazine]
- pIC50 [1]: ~4.15
- inhibition of production of aberrant phosphorylated epitopes in the MSN1a cell culture model (in words) [1]: effective in inhibiting the production of these aberrant phosphorylated epitopes
- SIGNAL ± SEM, Temporal ([2]; Normal 0.00 ± 0.00, AD 17.55 ± 2.82): 0.16 ± 0.11
- SIGNAL ± SEM, Frontal ([2]; Normal 0.12 ± 0.12, AD 16.54 ± 2.59): 0.12 ± 0.11
- PHF epitope levels in brain [3]: low PHF epitope levels similar to normal controls
- production of paired helical filament epitopes ([4]; 100 mM chlorpromazine, 2 hours at 37° C., PHF-1 immunostain): greatly decreased the production of paired helical filament epitopes
- inhibition of expression of PHF epitopes upon treatment of MSN1a cells with okadaic acid ([4]; AD specific antibodies, FIG. 3): markedly inhibit the expression of PHF epitopes

SMILES: O=C(CCN1CCOCC1)c1cccc(Cl)c1 [Example 38, 1-(m-Chlorophenyl)-3-(4'-morpholinyl)-1-propanone hydrochloride]
- pIC50 [1]: 5.24

SMILES: Cc1cccc(C(=O)CCN2CCOCC2)c1 [Example 9, 1-(m-Methylphenyl)-3-(4'-morpholinyl)-1-propanone hydrochloride]
- pIC50 [1]: 5.27

SMILES: COc1ccccc1C(=O)CCN1CCOCC1 [Example 13, 1-(o-Methoxyphenyl)-3-(4'-morpholinyl)-1-propanone hydrochloride]
- pIC50 [1]: 5.04

SMILES: O=C(CCN1CCOCC1)c1ccc(Br)cc1 [Example 42, 1-(p-Bromophenyl)-3-(4'-morpholinyl)-1-propanone hydrochloride]
- pIC50 [1]: 5.19

SMILES: CN1CCN(CCC(=O)c2ccccc2F)CC1 [Example 23, 1-(o-Fluorophenyl)-3-(4'-methyl-1'-piperazinyl)-1-propanone dihydrochloride]
- pIC50 [1]: 4.88

SMILES: C=C1[C@@H](O)[C@@H]2O[C@]3(CC[C@H](/C=C/[C@@H](C)[C@@H]4CC(C)=C[C@@]5(O[C@H](C[C@@](C)(O)C(=O)O)CC[C@H]5O)O4)O3)CC[C@H]2O[C@@H]1[C@@H](O)C[C@H](C)[C@H]1O[C@@]2(CCCCO2)CC[C@H]1C [okadaic acid]
- generation of the epitopes associated with Alzheimer brain specific monoclonal antibodies [5]: found to generate the epitopes
